Drawing on ChEMBL document CHEMBL1201862, “PubChem BioAssay data set” (2004), this text covers IC50, CC50 and EC50 for 3 compounds.

What is called IC50 is the concentration that gives 50% inhibition. By CC50 is commonly meant the concentration that lowers cell viability or growth by half. The term EC50 denotes the concentration giving half of the maximal effect.

Calls of active or inactive are those of the source. Bounds are passed on as bounds.

Assay [1] in a line: Counterscreen for IDE inhibitors: Luminescence-based cell-based high throughput dose response assay to identify compounds that are cytotoxic to HEK cells. [Related pubchem assays: 434962 (Primary screen (IDE inhibitors in singlicate)), 449730 (Counterscreen (Cytotoxicity in triplicate)), 435028 (Confirmation (IDE inhibitors in triplicate)) …. The format is functional. The conditions noted are these: HEK293. Background: The purpose of a counterscreen is to sort out artefacts and off-target activity.

The target in the next assay is Insulin-degrading enzyme (Homo sapiens, UniProt P14735). As to the kind of experiment: Dose Response: Fluorescence polarization-based cell-based high throughput dose response assay for inhibitors of insulin-degrading enzyme (IDE). [Related pubchem assays: 434962 (Primary screen (IDE inhibitors in singlicate)), 449730 (Counterscreen (Cytotoxicity in triplicate)), 435028 (Confirmation (IDE inhibitors in triplicate)), 434984 (Summary …. The format is functional. On the technique in general: Polarisation of emitted light reports the rotation of a fluorescent probe.
Sequence of Insulin-degrading enzyme (P14735 whole entry): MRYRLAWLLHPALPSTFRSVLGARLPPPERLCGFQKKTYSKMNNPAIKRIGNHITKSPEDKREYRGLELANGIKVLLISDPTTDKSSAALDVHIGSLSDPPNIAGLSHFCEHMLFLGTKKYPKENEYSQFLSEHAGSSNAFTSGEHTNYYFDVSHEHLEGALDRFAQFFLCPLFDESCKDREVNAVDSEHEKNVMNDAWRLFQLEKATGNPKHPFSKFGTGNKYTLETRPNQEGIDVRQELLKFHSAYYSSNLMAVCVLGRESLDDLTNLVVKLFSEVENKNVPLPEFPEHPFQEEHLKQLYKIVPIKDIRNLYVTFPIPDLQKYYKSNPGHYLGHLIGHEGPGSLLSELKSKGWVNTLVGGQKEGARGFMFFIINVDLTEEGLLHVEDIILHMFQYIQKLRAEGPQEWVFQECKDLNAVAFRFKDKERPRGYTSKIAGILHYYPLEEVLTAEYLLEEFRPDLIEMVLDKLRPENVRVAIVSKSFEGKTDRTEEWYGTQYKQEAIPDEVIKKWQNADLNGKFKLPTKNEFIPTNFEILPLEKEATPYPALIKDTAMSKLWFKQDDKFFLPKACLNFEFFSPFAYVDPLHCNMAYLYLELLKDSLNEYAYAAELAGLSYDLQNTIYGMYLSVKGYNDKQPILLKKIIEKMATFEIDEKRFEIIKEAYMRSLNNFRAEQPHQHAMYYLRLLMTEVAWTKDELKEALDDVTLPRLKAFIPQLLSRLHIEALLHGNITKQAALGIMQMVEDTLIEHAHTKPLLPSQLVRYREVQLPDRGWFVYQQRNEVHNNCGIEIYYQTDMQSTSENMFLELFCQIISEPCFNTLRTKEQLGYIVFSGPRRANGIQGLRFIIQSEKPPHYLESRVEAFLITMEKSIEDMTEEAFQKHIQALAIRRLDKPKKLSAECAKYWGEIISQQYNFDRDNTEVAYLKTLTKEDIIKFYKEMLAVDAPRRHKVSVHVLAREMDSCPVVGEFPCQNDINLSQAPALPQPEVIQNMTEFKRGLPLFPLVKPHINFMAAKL

Assay [2] in a line: viability loss in HeLa cells – cytotoxicity control for MgcRacGAP inhibitor project, dose response (AID 624300). In kind it is functional.
The target in assay [3] is T1, Rac GTPase-activating protein 1 (Homo sapiens, UniProt Q9H0H5).
T1 sequence (Q9H0H5 whole entry): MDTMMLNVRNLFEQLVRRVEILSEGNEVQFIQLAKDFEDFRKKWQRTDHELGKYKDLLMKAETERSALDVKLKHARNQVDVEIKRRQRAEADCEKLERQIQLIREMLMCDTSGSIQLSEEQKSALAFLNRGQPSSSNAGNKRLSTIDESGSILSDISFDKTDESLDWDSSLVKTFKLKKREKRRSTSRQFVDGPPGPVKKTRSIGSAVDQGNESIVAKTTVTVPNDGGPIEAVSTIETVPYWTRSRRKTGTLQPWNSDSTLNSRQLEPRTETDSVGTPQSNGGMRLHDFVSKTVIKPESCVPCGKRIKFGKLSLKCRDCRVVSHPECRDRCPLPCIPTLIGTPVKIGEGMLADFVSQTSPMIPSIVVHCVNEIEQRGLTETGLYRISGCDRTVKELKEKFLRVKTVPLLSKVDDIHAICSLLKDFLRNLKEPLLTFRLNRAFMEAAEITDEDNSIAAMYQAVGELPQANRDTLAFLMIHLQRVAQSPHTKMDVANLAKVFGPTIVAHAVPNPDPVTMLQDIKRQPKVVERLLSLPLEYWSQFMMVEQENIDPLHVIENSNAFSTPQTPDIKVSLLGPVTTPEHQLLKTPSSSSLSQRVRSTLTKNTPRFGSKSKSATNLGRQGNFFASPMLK
Kind of assay: blockers of MgcRacGAP-driven Rac1 GTP hydrolysis – biochemical, ADP Hunter fluorescence, primary and confirmatory, confirmation (AID 624330). The format is functional.

The nature of assay [4]: mRNA 3' processing disruption, beta-gal signal increase – luminescence, S. cerevisiae SKY197-pL101, dose response (AID 2525). The format is functional, cell-based.
Assay [5] addresses Photoreceptor-specific nuclear receptor (Homo sapiens, UniProt Q9Y5X4). The format is functional.
Another assay concerns the target T2, Bcl-2-like protein 10 (Homo sapiens, UniProt Q9HD36).
T2 sequence (Q9HD36 whole entry): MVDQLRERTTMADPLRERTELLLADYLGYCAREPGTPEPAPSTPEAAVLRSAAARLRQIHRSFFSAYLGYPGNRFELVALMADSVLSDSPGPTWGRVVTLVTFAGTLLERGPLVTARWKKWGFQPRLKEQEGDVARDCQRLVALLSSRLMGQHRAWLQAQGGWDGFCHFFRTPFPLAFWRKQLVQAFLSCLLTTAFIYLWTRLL
As to the kind of experiment: Concentration-response of Bcl-B inhibitors by biochemical FP with TR3 (AID 1243). The format is functional.

Assay [6] deals with T3, Induced myeloid leukemia cell differentiation protein Mcl-1 (Homo sapiens, UniProt Q07820). Kind of assay: blockers of MCL1 binding to BIM peptide – biochemical, fluorescence polarization, BIM-BH3 peptide, 1536-well, dose response (AID 2217).
T3 sequence (Q07820 whole entry): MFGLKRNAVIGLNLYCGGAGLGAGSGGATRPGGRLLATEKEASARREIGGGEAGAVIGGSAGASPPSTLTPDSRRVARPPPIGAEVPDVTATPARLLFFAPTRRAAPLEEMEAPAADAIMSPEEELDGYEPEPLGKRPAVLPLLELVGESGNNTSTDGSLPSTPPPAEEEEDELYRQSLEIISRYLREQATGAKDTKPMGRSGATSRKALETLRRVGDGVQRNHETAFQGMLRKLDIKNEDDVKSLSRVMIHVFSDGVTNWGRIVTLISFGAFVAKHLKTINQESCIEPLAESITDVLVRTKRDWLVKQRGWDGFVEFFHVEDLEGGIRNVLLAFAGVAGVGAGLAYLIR
Assay [7] deals with Peroxisome proliferator-activated receptor gamma/Nuclear receptor corepressor 2 (Homo sapiens, UniProt P37231+Q9Y618). In kind it is functional.
Sequence of Peroxisome proliferator-activated receptor gamma/Nuclear receptor corepressor 2 (P37231 whole entry): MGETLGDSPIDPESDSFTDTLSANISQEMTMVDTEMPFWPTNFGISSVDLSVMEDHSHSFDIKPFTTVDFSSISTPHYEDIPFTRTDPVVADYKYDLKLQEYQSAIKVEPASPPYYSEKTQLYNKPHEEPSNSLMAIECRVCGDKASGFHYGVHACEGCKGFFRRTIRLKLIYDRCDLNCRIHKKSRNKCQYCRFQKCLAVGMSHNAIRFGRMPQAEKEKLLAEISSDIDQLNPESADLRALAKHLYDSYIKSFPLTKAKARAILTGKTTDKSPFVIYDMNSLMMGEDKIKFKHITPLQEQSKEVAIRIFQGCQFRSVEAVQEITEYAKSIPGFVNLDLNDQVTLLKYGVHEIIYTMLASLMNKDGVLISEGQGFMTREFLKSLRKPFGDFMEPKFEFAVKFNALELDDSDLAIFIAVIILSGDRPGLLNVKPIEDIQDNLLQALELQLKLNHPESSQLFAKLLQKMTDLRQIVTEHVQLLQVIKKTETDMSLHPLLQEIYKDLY
Sequence of Peroxisome proliferator-activated receptor gamma/Nuclear receptor corepressor 2 (Q9Y618 whole entry): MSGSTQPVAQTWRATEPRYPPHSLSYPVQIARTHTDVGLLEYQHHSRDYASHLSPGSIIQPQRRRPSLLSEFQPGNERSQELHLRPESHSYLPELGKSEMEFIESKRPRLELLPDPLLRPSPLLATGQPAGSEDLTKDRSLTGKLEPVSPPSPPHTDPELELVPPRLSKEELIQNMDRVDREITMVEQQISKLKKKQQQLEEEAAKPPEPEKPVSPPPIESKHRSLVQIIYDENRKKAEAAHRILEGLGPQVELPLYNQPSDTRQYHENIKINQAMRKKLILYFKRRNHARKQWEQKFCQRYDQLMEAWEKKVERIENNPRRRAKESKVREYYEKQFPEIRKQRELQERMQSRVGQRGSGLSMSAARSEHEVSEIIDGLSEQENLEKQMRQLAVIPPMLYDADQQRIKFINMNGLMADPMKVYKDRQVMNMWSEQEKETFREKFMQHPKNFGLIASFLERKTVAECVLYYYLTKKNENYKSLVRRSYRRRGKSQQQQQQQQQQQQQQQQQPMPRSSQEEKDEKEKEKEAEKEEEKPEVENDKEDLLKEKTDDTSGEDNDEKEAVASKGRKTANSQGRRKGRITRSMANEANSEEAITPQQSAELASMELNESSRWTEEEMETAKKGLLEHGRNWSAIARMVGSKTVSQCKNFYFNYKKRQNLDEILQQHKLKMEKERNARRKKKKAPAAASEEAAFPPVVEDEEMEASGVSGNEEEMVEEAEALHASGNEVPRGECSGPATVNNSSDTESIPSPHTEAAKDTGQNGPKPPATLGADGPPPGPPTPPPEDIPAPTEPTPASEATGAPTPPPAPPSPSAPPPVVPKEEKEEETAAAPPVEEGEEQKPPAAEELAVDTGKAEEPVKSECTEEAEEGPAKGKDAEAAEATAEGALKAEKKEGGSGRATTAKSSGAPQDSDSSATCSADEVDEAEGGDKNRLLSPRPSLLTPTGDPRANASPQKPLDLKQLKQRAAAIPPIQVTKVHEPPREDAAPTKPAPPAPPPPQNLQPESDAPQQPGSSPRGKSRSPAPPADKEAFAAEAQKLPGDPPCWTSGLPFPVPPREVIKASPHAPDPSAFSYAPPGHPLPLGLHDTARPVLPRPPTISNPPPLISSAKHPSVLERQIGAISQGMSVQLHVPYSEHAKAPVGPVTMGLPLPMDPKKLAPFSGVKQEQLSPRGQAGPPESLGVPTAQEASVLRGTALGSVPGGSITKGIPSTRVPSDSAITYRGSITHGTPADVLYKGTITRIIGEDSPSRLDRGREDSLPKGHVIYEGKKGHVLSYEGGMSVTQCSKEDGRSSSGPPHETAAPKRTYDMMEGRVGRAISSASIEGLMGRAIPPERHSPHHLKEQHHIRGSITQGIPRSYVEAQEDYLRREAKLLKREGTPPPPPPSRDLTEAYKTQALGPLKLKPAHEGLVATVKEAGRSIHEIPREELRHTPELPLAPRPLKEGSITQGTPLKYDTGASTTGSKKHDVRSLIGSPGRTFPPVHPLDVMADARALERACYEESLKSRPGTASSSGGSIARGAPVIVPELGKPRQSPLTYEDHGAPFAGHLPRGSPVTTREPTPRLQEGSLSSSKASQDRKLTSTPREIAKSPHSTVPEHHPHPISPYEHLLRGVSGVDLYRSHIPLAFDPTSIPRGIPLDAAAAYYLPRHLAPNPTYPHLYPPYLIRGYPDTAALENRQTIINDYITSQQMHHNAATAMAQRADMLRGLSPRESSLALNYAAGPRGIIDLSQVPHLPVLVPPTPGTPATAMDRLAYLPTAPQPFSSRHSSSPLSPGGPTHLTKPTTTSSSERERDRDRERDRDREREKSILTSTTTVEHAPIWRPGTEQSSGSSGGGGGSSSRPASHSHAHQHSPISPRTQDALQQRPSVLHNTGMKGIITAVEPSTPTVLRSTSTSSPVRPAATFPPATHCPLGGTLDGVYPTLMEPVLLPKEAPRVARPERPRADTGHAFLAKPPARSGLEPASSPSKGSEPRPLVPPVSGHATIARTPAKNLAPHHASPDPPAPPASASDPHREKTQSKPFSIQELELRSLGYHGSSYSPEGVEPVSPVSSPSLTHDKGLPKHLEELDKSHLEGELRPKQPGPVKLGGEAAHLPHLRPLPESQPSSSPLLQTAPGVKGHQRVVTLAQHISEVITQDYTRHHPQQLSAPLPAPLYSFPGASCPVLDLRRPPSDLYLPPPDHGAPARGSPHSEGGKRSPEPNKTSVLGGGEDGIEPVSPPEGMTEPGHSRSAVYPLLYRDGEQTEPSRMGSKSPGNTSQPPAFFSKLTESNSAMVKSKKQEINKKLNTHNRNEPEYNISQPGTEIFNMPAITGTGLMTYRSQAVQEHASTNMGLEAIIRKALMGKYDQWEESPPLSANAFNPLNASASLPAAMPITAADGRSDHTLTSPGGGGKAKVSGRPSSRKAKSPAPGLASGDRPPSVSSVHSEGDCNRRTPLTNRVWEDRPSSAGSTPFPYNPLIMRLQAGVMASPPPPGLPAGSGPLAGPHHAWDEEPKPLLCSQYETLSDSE
A further assay concerns the target Bcl-2-like protein 1 (Homo sapiens, UniProt Q07817). As to the kind of experiment: blockers of BCLXL peptide binding – biochemical, fluorescence polarization, 1536-well, selectivity assay for MCL1 inhibitor project, dose response (AID 2218).
Assay [8] deals with T3, Induced myeloid leukemia cell differentiation protein Mcl-1. In kind it is functional.

Sequence of Photoreceptor-specific nuclear receptor (Q9Y5X4 whole entry): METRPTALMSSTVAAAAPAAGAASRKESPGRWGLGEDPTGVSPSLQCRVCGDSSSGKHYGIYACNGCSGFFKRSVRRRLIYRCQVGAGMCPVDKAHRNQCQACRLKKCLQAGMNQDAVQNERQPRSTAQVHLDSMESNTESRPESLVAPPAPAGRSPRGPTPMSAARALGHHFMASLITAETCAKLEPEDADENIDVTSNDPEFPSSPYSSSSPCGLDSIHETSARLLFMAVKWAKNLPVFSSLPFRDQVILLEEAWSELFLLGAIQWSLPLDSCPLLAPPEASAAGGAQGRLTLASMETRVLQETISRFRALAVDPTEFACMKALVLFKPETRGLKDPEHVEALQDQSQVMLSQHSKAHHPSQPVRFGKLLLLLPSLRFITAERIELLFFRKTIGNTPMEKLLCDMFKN
Sequence of Bcl-2-like protein 1 (Q07817 whole entry): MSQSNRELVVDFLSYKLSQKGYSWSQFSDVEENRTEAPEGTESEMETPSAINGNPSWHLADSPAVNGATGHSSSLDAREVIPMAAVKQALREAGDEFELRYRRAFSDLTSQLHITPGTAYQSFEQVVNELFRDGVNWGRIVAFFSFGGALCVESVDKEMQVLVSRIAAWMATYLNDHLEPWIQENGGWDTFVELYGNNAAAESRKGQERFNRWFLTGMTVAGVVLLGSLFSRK

As for `Cc1cc(/C=C2\SC(=S)NC2=O)cc(C)c1O`, the figures for the IC50 (in [1]; on Insulin-degrading enzyme; in assay [3]) were > 55.7 µM (not active), > 56 µM (not active) and 25.8 µM (active), respectively. Besides, in assay [2], the 50% cytotoxic concentration (CC50) is 100 µM (active).

In the case of `Cc1ccc2[nH]c(/C(C#N)=C/c3ccc([N+](=O)[O-])o3)nc2c1`, in assay [4], the EC50 is 4.03 µM (active).

Turning to `Cc1ccc(-c2cc(C(=O)O)c3cc(Br)ccc3n2)o1`, the IC50 in assay [5] is > 39.8 µM (not active); in assay [6], 27.9 µM (not active); in assay [7], 3.93 µM (active); on Bcl-2-like protein 1 it was > 109 µM (not active); in assay [8], 2.98 µM (active). Also, the EC50 at Bcl-2-like protein 10 is 16.5 µM (active).
